Data reported in patent publication US8962244B2, “Compounds for modulating RNA binding proteins and uses therefor” (University of Massachusetts, priority 2009, dated 2015).
Like-named read-outs stand apart in the source and are kept apart here.

Columns and labels:
[1] = target: T1, MEX-5 (Caenorhabditis elegans, UniProt Q9XUB2); assay: Dose response gel shift assay, MEX-5 with TCR2 RNA; assay type: binding; details: 120 nM MEX-5, 2-3 nM fluorescein labeled TCR2 RNA
T1 construct: The fragment of mex-5 containing the TZF domain (amino acids 236-350) was amplified; made in house; host or cells: Escherichia coli JM109
T1 sequence (Q9XUB2 236-350): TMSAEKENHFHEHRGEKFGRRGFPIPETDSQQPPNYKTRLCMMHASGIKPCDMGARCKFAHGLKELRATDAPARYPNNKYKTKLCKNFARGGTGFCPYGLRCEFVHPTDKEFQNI
Method: A further dose response assay was performed on select compounds of the invention as described below. A sub-saturating concentration of MEX-5 or POS-1 (120 nM) was equilibrated with limiting fluorescein labeled RNA (2-3 nM, TCR2 RNA or MEX-3 UTR fragment RNA respectively) in the presence of varying concentrations of compound. Following equilibration, the reactions were loaded onto a 5% slab polyacrylamide gel and subjected to electrophoresis for about 1 hour to separate protein-RNA complex from free RNA. The gel was scanned on a FUJI FLA-5000 imager, and the fraction of bound RNA determined by dividing the intensity of the bound RNA by the intensity of the bound RNA plus the free RNA. The […] was plotted as a function of compound concentration and fit to a sigmoidal dose response function in order to determine the IC50, the concentration that gives half maximal inhibition.

[2] = target: T1, MEX-5; assay: Fluorescence polarization screening of MEX-5 binding to fluorescein-labeled TCR2 RNA; details: for IC50: further screening as described above (fluorescence polarization), dose response; for remaining activity at 192 µM: read-out: MEX-5 score
Source text: The expression and purification of recombinant MEX-5 protein has previously been described in Pagano, J. M., Farley, B. M., McCoig, L. M. and Ryder, S. P. (2007) “Molecular basis of RNA recognition by the embryonic polarity determinant MEX-5;” J Biol Chem; 282, 8883-8894. The fragment of mex-5 containing the TZF domain (amino acids 236-350) was amplified from a commercially available ORFeome clone (Open Biosystems) and sub-cloned into the vector pMal-c (NEB), which encodes maltose binding protein as an N-terminal fusion. This construct is termed pMal-MEX-5 (236-350).
MEX-5 is expressed in Escherchia. coli JM109 liquid cultures grown at 37° C. Cultures were induced during mid log phase by the addition of 0.1 mM isopropyl 1-thio-β-D-galactopyranoside (IPTG) and allowed to grow for three hours. An amount of 100 μM zinc acetate (final concentration) was added at the time of induction. The pelleted cells were resuspended in lysis buffer (50 mM Tris pH 8.8, 200 mM NaCl, 2 mM DTT, EDTA free protease inhibitor tablet (Roche), 100 μM Zn(OAc)2) and lysed by sonication. The soluble protein was purified in three steps using standard chromatography methods: (1) amylose affinity (NEB), (2) Hi-TRAP-Q (GE Healthcare), and (3) Hi-TRAP-S (GE Healthcare). The Q buffer was composed of 50 mM Tris, pH 8.8, 20 mM-1500 mM NaCl, 2 mM DTT, and 100 μM Zn(OAc)2. The S buffer was composed of 50 mM MOPS, pH 6.0, 20 mM-1500 mM NaCl, 2 mM DTT, 100 μM Zn(OAc)2. The pure fractions, determined by coomassie-stained SDS-PAGE, were dialyzed into storage buffer (20 mM Tris, pH 8.0, 25 mM NaCl, 100 μM Zn(OAc)2, 2 mM DTT). The protein concentration was determined by measuring absorbance at 280 nm and the calculated extinction coefficient. The protein was stored at 50 μM concentration at 4° C.
All RNA oligonucleotides were chemically synthesized by Dharmacon or Integrated DNA Technologies. Upon arrival, each RNA was deprotected and stored according to the manufacturer's instructions. Prior to use, the RNA was resuspended in 10 mM Tris-HCl, pH 8.0, 0.1 mM EDTA, and the concentration determined by UV spectrophotometry using the calculated extinction coefficient at 260 nm based on the specific sequence. The sequence of the MEX-5 binding RNA (TCR2) is […] (SEQ ID NO:1). The POS-1 binding RNA (BMF018) is […] (SEQ ID NO:2). The MEX-3 binding RNA (SEQ 14) is […] (SEQ ID NO:3).
The RNA used for the small molecule screen was labeled at the 3′-end with fluorescein by Dharmacon during synthesis. In a few cases, follow up experiments were performed with post-synthetically labeled RNA. In this case, fluorescein 5-thiosemicarbazide (FTSC, Invitrogen) was used to 3′-end label each RNA after treatment with sodium periodate (see Reines, S. A. and Cantor, C. R. (1974) “New fluorescent hydrazide reagents for the oxidized 3′-terminus of RNA” Nucleic Acids Res. 1, 767-786). A representative 50 μl reaction consisted of 0.5 nanomoles RNA, 100 mM NaOAc, pH 5.1, and 5 nanomoles NaIO4. After the reaction was complete (90 minutes at room temperature), the sample was ethanol precipitated by adding 1 μl RNase free glycogen (Invitrogen 20 μg/μl), 1/20th volume of 5 M NaCl, and 2 volumes of 100% ice-cold ethanol. The resulting pellet was resuspended in 50 μl of 100 mM NaOAc, pH 5.1 containing 1 mM FTSC and was allowed to react overnight at 4° C. in the dark. The unreacted label was removed by ethanol precipitation with resuspension of the pellet in a small volume of TE, and purification over a Roche G-25 size exclusion spin column. The labeling efficiency is determined by calculating the ratio of fluorescein absorbance at 490 nm to RNA-fluorescein absorbance at 260 nm. Typical efficiencies are 60-80%.
The ability of MEX-5 to associate with RNA was monitored by fluorescence polarization using a victor V3 or victor V2V plate reader (Perkin Elmer) in 384-well FluoTrak microplates (Grenier). […]

[3] = target: T2, POS-1 (Caenorhabditis elegans, UniProt G5EF15); assay: Fluorescence polarization screening of POS-1 binding to fluorescein-labeled BMF018 RNA; details: read-out: POS-1 score
T2 construct: 6-his tag (N); made in house; host or cells: E. coli BL21 (DE3) Gold
T2 sequence (G5EF15 80-180): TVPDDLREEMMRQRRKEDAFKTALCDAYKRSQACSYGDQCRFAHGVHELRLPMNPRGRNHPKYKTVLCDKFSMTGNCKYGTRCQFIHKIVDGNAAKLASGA

[4] = test system: MEX-3; assay: Fluorescence polarization screening of MEX-3 binding to fluorescein-labeled SEQ 14 RNA; details: 192 μM test compound; 80 nM MBP-MEX-3, no zinc acetate; lowest score = greatest inhibition
[5] = 192 μM test compound, score = polarization relative to no-drug and no-protein controls, 0.25 = 75% inhibition, lowest score = greatest inhibition

For `O=C(CSc1nc2ccccc2s1)Nc1ccc(S(=O)(=O)Nc2nccs2)cc1` [DG], the IC50 [1] was 170 µM, the IC50 [2] was 160 µM and the remaining activity at 192 µM [3, 5] was 10.9%.

`CCOc1ccc(NS(=O)(=O)c2ccc(C)c(C(N)=O)c2)cc1` [EY] gave an MEX-3 score [4] of 0.08965.

In the case of `O=C(O)c1ccc(NC(=S)NC(=O)c2ccc(I)cc2)cc1` [AE], the remaining activity at 192 µM [2, 5] is reported as 8.11%, the MEX-3 score [4] is reported as 0.1624 and the remaining activity at 192 µM [3, 5] is reported as 3.61%.

For `COc1ccc(Cl)cc1C(=O)Nc1ccc(S(=O)(=O)Nc2nccs2)cc1` [BK], the IC50 [1] was 110 µM, the remaining activity at 192 µM [2, 5] was 18.4% and the IC50 [2] was 540 µM.

In the case of `O=C(O)c1ccc(Sc2nnc(-c3cccc(Br)c3)o2)c([N+](=O)[O-])c1` [G], the remaining activity at 192 µM [2, 5] is reported as -0.64% and the remaining activity at 192 µM [3, 5] is reported as 24.2%.

With `COc1ccc(N2C(=O)NC(=O)/C(=C/c3cccc(OC(=O)c4cccs4)c3)C2=O)cc1Cl` [AV] the remaining activity at 192 µM [2] was 14% and the remaining activity at 192 µM [3] was 10.9%.

Work on `O=C(Oc1ccc2ccccc2c1)c1ccc2c(c1)C1C=CCC1C(C(=O)O)N2` (stereo not shown) [H] yielded a remaining activity at 192 µM [2, 5] of -0.336% and a remaining activity at 192 µM [3, 5] of 1.95%.

With `Cc1[nH]nc(-c2ccc(O)c(O)c2O)c1-c1ccccc1` [P] the remaining activity at 192 µM [2, 5] was 3.42% and the remaining activity at 192 µM [3, 5] was 4.3%.

`CCn1c(-c2cc(Br)ccc2O)n[nH]c1=S` [AU] showed a remaining activity at 192 µM [2, 5] of 13.4% and a remaining activity at 192 µM [3, 5] of 24.8%.

`Cc1n[nH]c(SCc2cccc(CSc3nc(C)n[nH]3)c2)n1` [L] gave a remaining activity at 192 µM [2, 5] of 1.21% and a remaining activity at 192 µM [3, 5] of -0.0864%.

In the case of `COC(=O)c1ccccc1OC(=O)c1ccc2c(c1)C1C=CCC1C(C(=O)O)N2` (stereo not shown) [A], the remaining activity at 192 µM [2, 5] is reported as -10.3% and the remaining activity at 192 µM [3, 5] is reported as 7.5%.

Work on `O=C1NN(c2cccc(Br)c2)C(=O)/C1=C\c1cccc(OC(=O)c2cccs2)c1` [BI] yielded a remaining activity at 192 µM [2, 5] of 17.9% and a remaining activity at 192 µM [3, 5] of 10.6%.

In the case of `O=C(O)c1ccc(C2Nc3ccc([N+](=O)[O-])cc3C3c4ccccc4CC23)cc1` (stereo not shown) [AB], the remaining activity at 192 µM [2, 5] is reported as 7.3% and the remaining activity at 192 µM [3, 5] is reported as 10.9%.

With `COc1ccc(CCNC(=O)c2ccc(C(=O)NCCc3ccc(OC)c(OC)c3)nc2)cc1OC` [EX] the MEX-3 score [4] was 0.0674.

With `CC(=O)NC(c1ccco1)c1cc([N+](=O)[O-])c2cccnc2c1O` (stereo not shown) [Y] the remaining activity at 192 µM [2, 5] was 6.77% and the remaining activity at 192 µM [3, 5] was 6.04%.

`COc1cc2ccccc2cc1C(=O)NC(=S)Nc1cccc(C(=O)O)c1` [BS] was tested, and the remaining activity at 192 µM [2, 5] was 20% and the remaining activity at 192 µM [3, 5] was 24.3%.

For `Cn1c(S)nnc1-c1ccccc1O` [Z], the remaining activity at 192 µM [2, 5] was 6.88% and the remaining activity at 192 µM [3, 5] was 12.7%.

Compound `O=C(Nc1nnc[nH]1)c1ccccc1O` [AI] has a remaining activity at 192 µM [2, 5] of 9.13% and a remaining activity at 192 µM [3, 5] of 2.5%.

In the case of `COc1ccccc1C(=O)NC(=S)Nc1ccc(C(=O)O)c(Cl)c1` [BV], the remaining activity at 192 µM [2, 5] is reported as 21.1% and the remaining activity at 192 µM [3, 5] is reported as 12.2%.

`CCOC(=O)c1sc(NC(=S)NC(=O)c2cc3ccccc3o2)c(C(=O)OCC)c1C` [FB] was tested, and the MEX-3 score [4] was 0.2585.
